In patent US20210236425A1, “NEW TREATMENT OF INTERSTITIAL LUNG DISEASES” (INIM PHARMA AB, priority 2018, published 2021):

What was measured:
[1] = Dissolution kinetics in SLF, USP2 apparatus; format: physicochemical; details: SLF pH 7.4, 37° C., 5 mg in 500 mL
Experimental: The dissolution kinetics of the 3 different loading samples described in Example 5 were characterized in SLF (pH 7.4; made up with the salts NaCl, NaHCO3, KCl, MgCl2, CaCl2, Na2SO4, sodium citrate dihydrate, NaH2PO4 (all from Sigma)) at 37° C. using a USP2 dissolution apparatus with stirring speed 50 rpm. Free, unloaded thalidomide was used as control. Concentration of drug at set times after release was measured by a UV/vis spectrometer (Cecil 3021) at 220 nm.
The dose of thalidomide was calculated as 5 mg of thalidomide in 500 mL of SLF.

[2] = Dissolution kinetics in SLF with Tween 80, non-sink conditions; format: physicochemical; details: SLF with 1 wt % Tween 80, 80 mg dosage
Experimental: Given that thalidomide rapidly recrystallizes in solution, an experiment was conducted in the presence of a surfactant to stabilize the dissolved drug.
Tween 80 (1 wt %; Sigma) was added in the dissolution bath in SLF media. The dosage was increased to 80 mg to investigate the dissolution kinetics at high drug concentration, to simulate dissolution in non-sink conditions.

time in which Cmax was achieved [1]: 30 min
time to reach Cmax [2]: 30 min
SMILES: O=C1CCC(N2C(=O)c3ccccc3C2=O)C(=O)N1 (centres unmarked) [free drug, thalidomide]
